In series [1] the target is Amyloid-beta precursor protein (Homo sapiens) (UniProt P05067). Briefly: Inhibition of Amyloid beta (1 to 42) (unknown origin) self aggregation at 20 uM incubated for 12 hrs by thioflavin T assay.
The subject of another series is SH-SY5Y. Kind of series: Cytotoxicity in human SH-SY5Y cells assessed as reduction in cell viability at 0.1 to 1000 nM incubated for 48 hrs by WST8 assay. Conditions: 1 µM. The series is classed as cell-based.
Series [2] has as its target Amyloid-beta precursor protein (Homo sapiens) (UniProt P05067). Briefly: Inhibition of Amyloid beta (1 to 42) (unknown origin)-induced cytotoxicity in human SH-SY5Y cells assessed as increase in cell viability incubated for 48 hrs by WST8 assay. The series is classed as cell-based.
Series [3] shares this target. Briefly: Inhibition of Amyloid beta (1 to 42) (unknown origin)-induced cytotoxicity in human SH-SY5Y cells assessed as increase in cell viability at 40 uM incubated for 48 hrs by WST8 assay. Type of series: cell-based.
Series [4] shares this target. Kind of series: Inhibition of Amyloid beta (1 to 42) (unknown origin)-induced cytotoxicity in human SH-SY5Y cells assessed as increase in cell viability at 20 uM incubated for 48 hrs by WST8 assay. The series is classed as cell-based.
For series [5] the target is unchanged. Kind of series: Inhibition of Amyloid beta (1 to 42) (unknown origin) self aggregation assessed as decrease in negative maximum of CD spectrum of amyloid beta (1-42) incubated for 4 hrs by CD spectroscopy.
For series [6] the target is unchanged. Briefly: Inhibition of Amyloid beta (1 to 42) (unknown origin) fibril formation assessed as reduction in number of fibrils at 20 uM incubated for 48 hrs by transmission-type electron microscopy.
For series [7] the target is unchanged. Kind of series: Inhibition of Amyloid beta (1 to 42) (unknown origin) fibril formation assessed as reduction in thickness of fibrils at 20 uM incubated for 48 hrs by transmission-type electron microscopy.

Active and inactive are the calls of the source. The calls are words filed in the database; no cut-off is given here.

Amyloid-beta precursor protein (Homo sapiens), sequence (P05067 whole entry): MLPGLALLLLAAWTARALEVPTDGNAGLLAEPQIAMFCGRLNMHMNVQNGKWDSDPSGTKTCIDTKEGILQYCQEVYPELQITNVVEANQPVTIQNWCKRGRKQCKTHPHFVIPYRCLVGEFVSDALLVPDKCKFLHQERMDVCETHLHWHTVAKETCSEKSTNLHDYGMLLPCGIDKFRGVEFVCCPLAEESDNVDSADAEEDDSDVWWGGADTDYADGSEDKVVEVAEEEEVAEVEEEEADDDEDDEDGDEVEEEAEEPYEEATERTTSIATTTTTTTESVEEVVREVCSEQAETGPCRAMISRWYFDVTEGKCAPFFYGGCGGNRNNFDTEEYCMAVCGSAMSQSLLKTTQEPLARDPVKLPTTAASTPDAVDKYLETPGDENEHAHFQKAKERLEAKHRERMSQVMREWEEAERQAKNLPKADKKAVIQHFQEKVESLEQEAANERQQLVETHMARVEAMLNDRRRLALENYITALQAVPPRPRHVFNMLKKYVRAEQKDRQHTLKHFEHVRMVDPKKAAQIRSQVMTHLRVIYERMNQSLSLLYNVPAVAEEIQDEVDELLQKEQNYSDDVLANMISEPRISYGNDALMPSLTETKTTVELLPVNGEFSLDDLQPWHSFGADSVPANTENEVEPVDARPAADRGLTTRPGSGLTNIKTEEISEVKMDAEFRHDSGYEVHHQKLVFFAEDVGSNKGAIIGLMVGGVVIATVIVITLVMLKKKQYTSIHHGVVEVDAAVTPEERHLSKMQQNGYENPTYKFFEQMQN

`Oc1cc(O)c2c(c1)O[C@H](c1ccc(O)c(O)c1)[C@@H](O)C2`: the inhibition entry in series [1] is “Active”.

Turning to `CC1(C)O[C@H]2Cc3c(O)cc(O)c([C@@H]4c5c(O)cc(O)cc5O[C@H](c5ccc(O)c(O)c5)[C@H]4O)c3O[C@@H]2c2cc(O)c(O)cc21`, the Activity result with SH-SY5Y is “Non-Toxic”. Further, the inhibition entry in series [2] was “Dose-dependent effect”; in series [3], 100%. The inhibition result in series [1] was “Active”.

Turning to `Oc1cc(O)c2c(c1)O[C@H](c1ccc(O)c(O)c1)[C@@H](O)[C@@H]2c1c(O)cc(O)c2c1O[C@H](c1ccc(O)c(O)c1)[C@@H](O)C2`, the Activity result in the series with SH-SY5Y was “Non-Toxic”. Moreover, the inhibition entry in series [2] is “Dose-dependent effect”; in series [3] it was 100%. Besides, the inhibition entry in series [1] is “Active”.

As to `CC1(C)O[C@H]2[C@H](c3c(O)cc(O)c4c3O[C@@H]3c5cc(O)c(O)cc5C(C)(C)O[C@H]3C4)c3c(O)cc(O)cc3O[C@@H]2c2cc(O)c(O)cc21`, in the series on SH-SY5Y, the Activity entry was “Non-Toxic”. In addition, the inhibition result in series [2] was “Dose-dependent effect”; in series [4] it was 100%. In addition, the inhibition result in series [1], in series [5], in series [6] and in series [7] was “Active” in each case.

With `CC1(C)O[C@H]2Cc3c(O)cc(O)cc3O[C@@H]2c2cc(O)c(O)cc21`, in series [1], the inhibition result is “Active”.

The values above are taken from ChEMBL document CHEMBL4385658, “Inhibition of β-amyloid-induced neurotoxicity by planar analogues of procyanidin B3” (Bioorg Med Chem Lett, 2019).
